Measurements published in patent US11382935B2, “Composition for improving cognitive ability and preventing or treating dementia and attention deficit hyperactivity disorder, comprising Galla rhois extract and fraxin as active ingredients” (priority 2018, dated 2022).

What was measured:
[1] = tested on: Superoxide dismutase (SOD); test: Superoxide dismutase (SOD) assay in H2O2-treated HUVECs; format: cell-based, Human; conditions: treated before H2O2 treatment
Procedure: (§1) Human umbilical vein endothelial cells (HUVECs) were treated with each of the 7 types of antioxidants A1-A7, and then an oxidant, hydrogen peroxide, was administered to analyze the degree of cell damage by an MTT assay, and then the activity of superoxide dismutase and catalase was measured.

HUVECs [2] = test: Production of reactive oxygen species (ROS), DCF fluorescence, in H2O2-treated HUVECs; format: cell-based, Human; conditions: for reduction of the H2O2-induced increase in ROS level: H2O2-treated HUVECs, DCF fluorescence, H2O2 increases ROS by 55%; for ROS scavenging effect: HUVECs treated with antioxidant, then hydrogen peroxide
[3] = tested on: Human umbilical vein endothelial cells (HUVECs); test: Antioxidant activity screening; format: cell-based; conditions: screening of components with known antioxidant activity
Procedure: Compounds used in the antioxidant activity screening of the present invention are A1 to A7 below:
as §1

[4] = DPPH assay of free radical-scavenging activity; format: biochemical; conditions: absorbance at 517 nm for 10 minutes
Procedure: In the present invention, the experiment was carried out with fraxin having a concentration of 0.5 mM, and this concentration is a result of performing an experiment of the free radical-scavenging activity of fraxin using a DPPH assay. A DPPH solution was treated with various concentrations of fraxin (0.02, 0.1 and 0.5 mM), and a change in absorbance was monitored at 517 nm for 10 minutes. The free radical scavenging activity was approximately 10%, 18% or 50% at the fraxin concentration of 0.02, 0.1 or 0.5 mM, respectively, and 0.5 mM was selected for subsequent experiment.

HUVECs [5] = test: Lipid peroxidation (LPO) assay, MDA amount, in H2O2-exposed cells; format: cell-based, Human; conditions: cells exposed to H2O2
[6] = tested on: Human umbilical vein endothelial cells (HUVECs); test: MTT assay of cell damage in hydrogen peroxide-treated HUVECs (cell regeneration effect); format: cell-based; conditions: HUVECs treated with antioxidant, then hydrogen peroxide
Procedure: as §1

Compound	SOD activity [1]	reduction of the H2O2-induced increase in ROS level (HUVECs [2])	ROS scavenging effect (HUVECs [2])	antioxidant activity [3]	free radical scavenging activity ([4]; 0.02 mM)	free radical scavenging activity ([4]; 0.1 mM)	free radical scavenging activity ([4]; 0.5 mM)	reduction of the H2O2-induced increase in MDA amount (LPO) (HUVECs [5])	cell regeneration effect [6]
COc1cc2ccc(=O)oc2c(O[C@@H]2O[C@H](CO)[C@@H](O)[C@H](O)[C@H]2O)c1O [A3, fraxin]	increase	39%	poor	highest activity	approximately 10%	~18%	~50%	greatly reduced	high
COC(=O)c1cc(O)c(O)c(O)c1 [A4, methyl gallate]		24%	high					greatly reduced	high
C[C@@H]1O[C@@H](O[C@@H]2[C@@H](O)[C@H](OCCc3ccc(O)c(O)c3)O[C@H](CO)[C@H]2OC(=O)/C=C/c2ccc(O)c(O)c2)[C@H](O)[C@H](O)[C@H]1O [A6, Acteoside]			did not show						did not show
O=C(CC(O)(CC(=O)OCc1ccc(O[C@@H]2O[C@H](CO)[C@@H](O)[C@H](O)[C@H]2O)cc1)C(=O)O)OCc1ccc(O[C@@H]2O[C@H](CO)[C@@H](O)[C@H](O)[C@H]2O)cc1 [A7, 1,3-bis[4-(3-D-glucopyranosyl)benzyl]citrate]			did not show						did not show
O=C(O)c1cc(O)c(O)c(O)c1 [gallic acid]				highest activity					
